In ChEMBL document CHEMBL4665704, “Carneic Acids from an Endophytic Phomopsis sp. as Dengue Virus Polymerase Inhibitors” (J Nat Prod, 2020):

Tests used:
[1] = system: Zika virus; test: Inhibition of NS5 in Zika virus at 50 ug/ml after 10 mins in presence of nucleotide mix by fluorescence assay; conditions: dose 50.0 µg/ml
[2] = system: Dengue virus; test: Inhibition of DENV RNA-dependent RNA polymerase at 10 ug/ml; conditions: dose 10.0 µg/ml
[3] = system: MRC5; test: Antiproliferative activity against human MRC5 cells at 10 ug/ml after 72 hrs by resazurin dye-based spectrophotometric analysis relative to control; assay type: functional; conditions: dose 10 µg/ml
[4] = system: Zika virus; test: Inhibition of NS5 in Zika virus at 10 ug/ml after 10 mins in presence of nucleotide mix by fluorescence assay; conditions: dose 10.0 µg/ml
[5] = system: Dengue virus; test: Inhibition of DENV RNA-dependent RNA polymerase at 50 ug/ml; conditions: dose 50.0 µg/ml
[6] = system: Dengue virus; test: Inhibition of DENV RNA-dependent RNA polymerase at 1 ug/ml; conditions: dose 1.0 µg/ml
[7] = system: Zika virus; test: Inhibition of NS5 in Zika virus at 1 ug/ml after 10 mins in presence of nucleotide mix by fluorescence assay; conditions: dose 1.0 µg/ml
[8] = Inhibition of DENV RNA-dependent RNA polymerase; parameters: species or system Dengue virus
[9] = system: Dengue virus; test: Inhibition of DENV RNA-dependent RNA polymerase at 10 uM

Structure (SMILES) | inhibition [1] [%] | inhibition [2] [%] | inhibition [4] [%] | inhibition [5] [%] | inhibition [6] [%] | inhibition [7] [%] | IC50 [8] [µM] | inhibition [9] [%] | Activity [3] [%]
CC1=C[C@@H]2CC(=O)C[C@H](C)[C@H]2[C@H](/C=C/C=C/C(=O)O)[C@@H]1/C(C)=C/CO | 25.5 | 23.8 | 0 | 36.7 | 0 | 0 | – | – | 100
C/C=C(\C)[C@@H]1C(C)=C[C@@H]2CC(=O)C[C@H](C)[C@H]2[C@@H]1/C=C/C=C/C(=O)O | 49.9 | 65.6 | 24.4 | 85.1 | 7.9 | 6.3 | 11.8 | – | 96.9
Nc1ncnc2c1ncn2[C@@H]1O[C@H](COP(=O)(O)OP(=O)(O)OP(=O)(O)O)C[C@H]1O | – | – | – | – | – | – | – | 96.1 | –
C/C=C(\C)[C@@H]1C(C)=C[C@@H]2C[C@H](O)C[C@H](C)[C@H]2[C@@H]1/C=C/C=C/C(=O)O | 50.9 | 46 | 27.6 | 85 | 6.4 | 4.9 | 19 | – | 99
C/C=C(\C)[C@@H]1C(C)=C[C@@H]2C[C@@H](OC(C)=O)C[C@H](C)[C@H]2[C@@H]1/C=C/C=C/C(=O)O | 47.7 | 62.3 | 21.5 | 88.9 | 2.8 | 1.2 | 15.5 | – | 91.9
C/C=C(\C)[C@@H]1C(C)=C[C@@H]2C[C@@H](O)C[C@H](C)[C@H]2[C@@H]1/C=C/C=C/C(=O)O | 40.9 | 59.4 | 23.3 | 78.1 | 15.3 | 9.6 | 19 | – | 97

Continued, in another order:

inhibition [1] [%] | inhibition [2] [%] | inhibition [4] [%] | inhibition [5] [%] | inhibition [6] [%] | inhibition [7] [%] | IC50 [8] [µM] | inhibition [9] [%] | Structure (SMILES) | Activity [3] [%]
33.7 | 29.7 | 8 | 42 | 0 | 4.8 | – | – | CC1=C[C@@H]2CC[C@@H](O)[C@H](C)[C@H]2[C@H](/C=C/C=C/C(=O)O)[C@@H]1/C(C)=C/CO | 98.1
56.3 | 61 | 20.7 | 85.4 | 10.5 | 3 | 13.6 | – | CC(=O)OC/C=C(\C)[C@@H]1C(C)=C[C@@H]2CC[C@H](O)[C@H](C)[C@H]2[C@@H]1/C=C/C=C/C(=O)O | 95.6
15 | 49 | 6 | 42.8 | 2 | 15.2 | – | – | CC1=C[C@@H]2C[C@@H](O)C[C@H](C)[C@H]2[C@H](/C=C/C=C/C(=O)O)[C@@H]1/C(C)=C/CO | 79.3
18.4 | 28.7 | 5.5 | 43.9 | 6.5 | 8.5 | – | – | CC1=C[C@@H]2C[C@H](O)C[C@H](C)[C@H]2[C@H](/C=C/C=C/C(=O)O)[C@@H]1/C(C)=C/CO | 85.8
25.4 | 36.4 | 19.3 | 64.6 | 0 | 13.8 | – | – | CC(=O)OC/C=C(\C)[C@@H]1C(C)=C[C@@H]2CC(=O)C[C@H](C)[C@H]2[C@@H]1/C=C/C=C/C(=O)O | 98.8
32 | 28.9 | 3.3 | 52.3 | 4.7 | 0 | – | – | CC(=O)OC/C=C(\C)[C@@H]1C(C)=C[C@@H]2C[C@H](O)C[C@H](C)[C@H]2[C@@H]1/C=C/C=C/C(=O)O | 98.5
38.3 | 51.2 | 21 | 75.5 | 13.2 | 0 | 37.5 | – | CC1=C[C@@H]2CCC[C@H](C)[C@H]2[C@H](/C=C/C=C/C(=O)O)[C@@H]1/C(C)=C/CO | 100
39.6 | 40.2 | 18.1 | 48.7 | 26 | 5.4 | – | – | CC(=O)OC/C=C(\C)[C@@H]1C(C)=C[C@@H]2CC[C@@H](O)[C@H](C)[C@H]2[C@@H]1/C=C/C=C/C(=O)O | 93.5
